Experimental data: US4129648A, “Method for reducing endogenous prostaglandin synthesis” (priority 1977, dated 1978)

Tested on: prostaglandin synthetase of bovine seminal vesicles
Assay: Inhibition of conversion of arachidonic acid into PGE2 and PGF2α by BSV prostaglandin synthetase, cascade bioassay
Assay type: biochemical
Protocol: The high molecular weight mammalian blood plasma or serum extract of the present invention was tested for PG synthesis-inhibiting properties by determining the ability of the extract to inhibit the conversion of arachidonic acid into PGE2 and PGF2α by PG synthetase present in BSV, in the presence of optimal amounts of the cofactor glutathione, (reduced form). Specifically, the inhibitory properties of the extract were determined by a cascade bioassay technique [Collier et al., Brit. J. Pharmac., 58, 193-199 (1976)] involving measurement of prostaglandin activity against response.
The ability of the purified mammalian serum extract to inhibit the enzymatic conversion of arachidonic acid by prostaglandin synthetase obtained from BSV was determined by bioassay on tissues which are known to be contracted by naturally occurring PGs. Segments of rat or hamster stomach fundus (stomach strip) were obtained as described in Brit. J. Pharmacol. Vol. 5, 173 (1950), Vol. 6, 32 (1953), Vol. 12, 344 (1957), and Vol. 23, 351 (1964). […]
A dose of standard PGE2 is put over the tissues by means of the roller pump and the tissue response measured by recording the tissue contraction. […] Alternately, the protein content of the solution can be determined by known techniques, such as the biuret reaction or Kjeldahl method, and the test value expressed in ng. […]

Q: With “haptoglobin obtained from Cohn subfraction IV4 by the above procedure: haptoglobin from Cohn subfraction IV4 by second procedure: ethacridine lactate precipitation and chromatography” as the substance, how does the “Inhibition of PG synthesis (in words)” value read?
A: Its value is “demonstrated an ability to inhibit”.
